In patent US12187720B2, “Compounds for treatment of cancer” (ONCTERNAL THERAPEUTICS, INC., priority 2010, dated 2025):
Read-outs that look alike come from different tables or passages of the source.

Experiments:
PPC-1 = test: SRB cytotoxicity assay, PPC-1 prostate cancer cells; format: cell-based, human
From the text: (§1) Cells were stained with SRB solution.

PC-3 = test: SRB cytotoxicity assay, PC-3 prostate cancer cells; format: cell-based, human; conditions: read-out: inhibitory effects PC3
From the text: as §1

LNCaP = test: SRB cytotoxicity assay, LNCaP prostate cancer cells; format: cell-based, human
From the text: as §1

[1] = test system: melanoma and prostate cancer cell lines; test: SRB cytotoxicity, summary or average over melanoma and prostate cancer cell lines; format: cell-based; conditions: for IC50: average of all seven cell lines
DU 145 = test: SRB cytotoxicity assay, DU 145 prostate cancer cells; format: cell-based; conditions: Homo sapiens
From the text: as §1

[2] = Homo sapiens, PPC-1, Table 13A, read-out: inhibitory effects PPC1
[3] = Table 13A, read-out: inhibitory effects DU145
[4] = Homo sapiens, LNCaP, Table 13A, read-out: inhibitory effects LNCaP
[5] = Homo sapiens, PPC-1, Table 13B, read-out: inhibitory effects PPC1
[6] = Table 13B, read-out: inhibitory effects DU145
[7] = Homo sapiens, LNCaP, Table 13B, read-out: inhibitory effects LNCaP
[8] = Homo sapiens, LNCaP, Table 6A, read-out: IC50 LNCaP

4-Methoxyphenyl(4-(3,4,5-trimethoxyphenyl)-1H-imidazol-2-yl)methanone and 4-methoxyphenyl(5-(3,4,5-trimethoxyphenyl)-1H-imidazol-2-yl)methanone [70y]
IC50 (PPC-1; Table 13B, read-out: inhibitory effects PPC1): 5.69 µM
IC50 (PC-3; Table 13B): 10.4 µM
IC50 (LNCaP; Table 13B, read-out: inhibitory effects LNCaP): 0.709 µM

COc1cc(C(=O)c2cccc(-c3ccccc3)c2)cc(OC)c1OC [1a, Biphenyl-3-yl(3,4,5-trimethoxyphenyl)methanone]
antiproliferative activity in words [1]: hundreds of nanomolar range

COc1cc(C(O)c2csc(-c3ccccc3)n2)cc(OC)c1OC (stereo not shown) [2b, (2-Phenylthiazol-4-yl)(3,4,5-trimethoxyphenyl)methanol]
antiproliferative activity in words [1]: inactive

CNCc1ccc(-c2nc(C(=O)c3cc(OC)c(OC)c(OC)c3)cs2)cc1.Cl [2s, (2-(4-((Methylamino)methyl)phenyl)thiazol-4-yl)(3,4,5-trimethoxyphenyl)methanone hydrochloride]
antiproliferative activity in words [1]: abrogated activity

COc1cc(C(=O)c2csc(-c3ccc(CN(C)C)cc3)n2)cc(OC)c1OC.Cl [2u, (2-(4-((Dimethylamino)methyl)phenyl)thiazol-4-yl)(3,4,5-trimethoxyphenyl)methanone hydrochloride]
antiproliferative activity in words [1]: abrogated activity

COc1cc(/C=C\c2csc(-c3ccccc3)n2)cc(OC)c1OC [3a, (Z)-2-Phenyl-4-(3,4,5-trimethoxystyryl)thiazole]
antiproliferative activity in words [1]: lost activity

Cc1ccc(-c2nc(C(=O)c3ccc(F)cc3)cn2S(=O)(=O)c2ccccc2)cc1 [11db, (4-fluorophenyl)(1-(phenylsulfonyl)-2-(p-tolyl)-1H-imidazol-4-yl)methanone]
IC50 [1]: 0.111 µM

COc1cc(C(=O)c2cn(S(=O)(=O)c3ccccc3)c(-c3ccc(N(C)C)cc3)n2)cc(OC)c1OC [11ga, (2-(4-(dimethylamino)phenyl)-1-(phenylsulfonyl)-1H-imidazol-4-yl)(3,4,5-trimethoxyphenyl)methanone]
IC50 [1]: 0.285 µM

CN(C)c1ccc(-c2nc(C(=O)c3ccc(F)cc3)cn2S(=O)(=O)c2ccccc2)cc1 [11gb, (2-(4-(dimethylamino)phenyl)-1-(phenylsulfonyl)-1H-imidazol-4-yl)(4-fluorophenyl)methanone]
IC50 [1]: 0.087 µM

COc1ccc(-c2nc(C(=O)c3cc(OC)c(OC)c(OC)c3)cn2S(=O)(=O)c2ccccc2)cc1OC [11ha, (2-(3,4-dimethoxyphenyl)-1-(phenylsulfonyl)-1H-imidazol-4-yl)(3,4,5-trimethoxyphenyl)methanone]
IC50 [1]: 0.268 µM

COc1cc(OC)cc(C(=O)c2c[nH]c(-c3ccccc3)n2)c1 [12ad, (3,5-dimethoxyphenyl)(2-phenyl-1H-imidazol-4-yl)methanone]
IC50 [1]: 3.1 µM

O=C(c1ccc(F)cc1)c1c[nH]c(-c2ccccc2)n1 [12af, (4-fluorophenyl)(2-phenyl-1H-imidazol-4-yl)methanone]
IC50 [1]: 0.91 µM

Cc1ccc(-c2nc(C(=O)c3ccc(F)cc3)c[nH]2)cc1 [12db, (4-fluorophenyl)(2-(p-tolyl)-1H-imidazol-4-yl)methanone]
IC50 [1]: 0.109 µM

COc1cc(C(=O)c2c[nH]c(-c3ccc(OCc4ccccc4)cc3)n2)cc(OC)c1OC [12ja, (2-(4-(benzyloxy)phenyl)-1H-imidazol-4-yl)(3,4,5-trimethoxyphenyl)methanone]
IC50 [1]: 7.3 µM

O=C(c1ccc(F)cc1)c1c[nH]c(-c2ccc(OCc3ccccc3)cc2)n1 [12jb, (2-(4-(benzyloxy)phenyl)-1H-imidazol-4-yl)(4-fluorophenyl)methanone]
fold more activity than the comparator ([1]; 2e-cis vs 2e-trans, 12jb vs 12kb): 440 fold
IC50 [1]: 0.075 µM

O=C(c1cc(O)c(O)c(O)c1)c1c[nH]c(-c2ccc(Cl)cc2)n1 [13fa, (2-(4-chlorophenyl)-1H-imidazol-4-yl)(3,4,5-trihydroxyphenyl)methanone]
IC50 [1]: 3.89 µM

COc1cc(C(=O)[C@H]2COC(c3ccccc3)=N2)cc(OC)c1OC [35a, (2R)-(2-Phenyl-4,5-dihydro-oxazol-4-yl)-(3,4,5-trimethoxy-phenyl)-methanone]
antiproliferative activity in words [1]: hundreds of nanomolar range

COc1cc(C(=O)c2coc(-c3ccccc3)n2)cc(OC)c1OC [36a, (2-Phenyl-oxazol-4-yl)-(3,4,5-trimethoxy-phenyl)-methanone]
antiproliferative activity in words [1]: hundreds of nanomolar range

COc1cc(C(=O)c2nc(-c3ccccc3)c[nH]2)cc(OC)c1OC [70a, (4-phenyl-1H-imidazol-2-yl)(3,4,5-trimethoxyphenyl)methanone]
IC50 (PC-3; Homo sapiens, PC-3, Table 13A): 0.014 µM

COc1cc(C(=O)c2nc(-c3ccc(F)cc3)c[nH]2)cc(OC)c1OC [70b, (4-(4-fluorophenyl)-1H-imidazol-2-yl)(3,4,5-trimethoxyphenyl)methanone]
IC50 (PPC-1; [2]): 0.013 µM
IC50 (PC-3; Homo sapiens, PC-3, Table 13A): 0.196 µM
IC50 (DU 145; [3]): 0.353 µM
IC50 (LNCaP; [4]): 0.114 µM

COc1cc(C(=O)c2nc(-c3ccc(N(C)C)cc3)c[nH]2)cc(OC)c1OC [70h, (4-(4-(dimethylamino)phenyl)-1H-imidazol-2-yl)(3,4,5-trimethoxyphenyl)methanone]
IC50 (PPC-1; [2]): 0.12 µM
IC50 (PC-3; Homo sapiens, PC-3, Table 13A): 0.117 µM
IC50 (DU 145; [3]): 0.263 µM
IC50 (LNCaP; [4]): 0.096 µM

COc1cc(C(=O)c2nc(-c3ccc(O)cc3)c[nH]2)cc(OC)c1OC [70i, (4-(4-hydroxyphenyl)-1H-imidazol-2-yl)(3,4,5-trimethoxyphenyl)methanone]
IC50 (PPC-1; [2]): 0.122 µM
IC50 (PC-3; Homo sapiens, PC-3, Table 13A): 0.155 µM
IC50 (DU 145; [3]): 0.518 µM
IC50 (LNCaP; [4]): 0.219 µM

COc1cc(C(=O)c2nc(-c3ccccc3)c(C)[nH]2)cc(OC)c1OC [70j, (5-methyl-4-phenyl-1H-imidazol-2-yl)(3,4,5-trimethoxyphenyl)methanone]
IC50 (PPC-1; [2]): 0.86 µM
IC50 (PC-3; Homo sapiens, PC-3, Table 13A): 1.62 µM
IC50 (DU 145; [3]): 2 µM
IC50 (LNCaP; [4]): 0.938 µM

CCc1[nH]c(C(=O)c2cc(OC)c(OC)c(OC)c2)nc1-c1ccccc1 [70k, (5-ethyl-4-phenyl-1H-imidazol-2-yl)(3,4,5-trimethoxyphenyl)methanone]
IC50 (PPC-1; [2]): 2.08 µM
IC50 (PC-3; Homo sapiens, PC-3, Table 13A): 3.65 µM
IC50 (DU 145; [3]): 5.08 µM
IC50 (LNCaP; [4]): 2.03 µM

CCCc1[nH]c(C(=O)c2cc(OC)c(OC)c(OC)c2)nc1-c1ccccc1 [70l, (4-phenyl-5-propyl-1H-imidazol-2-yl)(3,4,5-trimethoxyphenyl)methanone]
IC50 (PPC-1; [2]): 11.4 µM
IC50 (PC-3; Homo sapiens, PC-3, Table 13A): 12.4 µM
IC50 (DU 145; [3]): 16.4 µM
IC50 (LNCaP; [4]): 3.09 µM

COc1cc(C(=O)c2nc(-c3ccccc3)cn2C)cc(OC)c1OC [70m, (1-methyl-4-phenyl-1H-imidazol-2-yl)(3,4,5-trimethoxyphenyl)methanone]
IC50 (PC-3; Homo sapiens, PC-3, Table 13A): 0.016 µM

CCn1cc(-c2ccccc2)nc1C(=O)c1cc(OC)c(OC)c(OC)c1 [70n, (1-ethyl-4-phenyl-1H-imidazol-2-yl)(3,4,5-trimethoxyphenyl)methanone]
IC50 (PC-3; Homo sapiens, PC-3, Table 13A): 0.025 µM

COc1cc(C(=O)c2nc(-c3ccccc3)cn2Cc2ccccc2)cc(OC)c1OC [70o, (1-benzyl-4-phenyl-1H-imidazol-2-yl)(3,4,5-trimethoxyphenyl)methanone]
IC50 (PC-3; Homo sapiens, PC-3, Table 13A): 0.072 µM

COc1cc(C(=O)c2nc(-c3ccccc3)cn2C2CCCC2)cc(OC)c1OC [70p, (1-cyclopentyl-4-phenyl-1H-imidazol-2-yl)(3,4,5-trimethoxyphenyl)methanone]
IC50 (PC-3; Homo sapiens, PC-3, Table 13A): 0.056 µM

O=C(c1ccc(F)cc1)c1nc(-c2ccc(F)cc2)c[nH]1 [70r, (4-fluorophenyl)(4-(4-fluorophenyl)-1H-imidazol-2-yl)methanone]
IC50 (PPC-1; [5]): > 50 µM
IC50 (PC-3; Homo sapiens, PC-3, Table 13B): > 50 µM
IC50 (DU 145; [6]): > 50 µM
IC50 (LNCaP; [7]): > 50 µM

O=C(c1ccc(Cl)cc1)c1nc(-c2ccc(Cl)cc2)c[nH]1 [70s, (4-chlorophenyl)(4-(4-chlorophenyl)-1H-imidazol-2-yl)methanone]
IC50 (PPC-1; [5]): > 50 µM
IC50 (PC-3; Homo sapiens, PC-3, Table 13B): > 50 µM
IC50 (DU 145; [6]): > 50 µM
IC50 (LNCaP; [7]): > 50 µM

O=C(c1ccc(C(F)(F)F)cc1)c1nc(-c2ccc(C(F)(F)F)cc2)c[nH]1 [70u, (4-(trifluoromethyl)phenyl)(4-(4-(trifluoromethyl)phenyl)-1H-imidazol-2-yl)methanone]
IC50 (PPC-1; [5]): > 50 µM
IC50 (PC-3; Homo sapiens, PC-3, Table 13B): > 50 µM
IC50 (DU 145; [6]): > 50 µM
IC50 (LNCaP; [7]): > 50 µM

COc1cc(C(=O)c2csc(-c3ccccc3)n2)cc(OC)c1OCc1ccccc1 [compound 9]
IC50 (LNCaP; [8]): ~10 µM

Cc1ccc(-c2nc(C(=O)c3ccc(F)cc3)cs2)cc1 [compound 11]
IC50 (PPC-1; Homo sapiens, PPC-1, Table 6A, read-out: IC50 PPC-1): ~10 µM
IC50 (DU 145; Table 6A, read-out: IC50 DU 145): ~10 µM
IC50 (LNCaP; [8]): > 10 µM

O=C(c1ccc(F)cc1)c1csc(-c2ccccc2)n1 [compound 12]
IC50 (LNCaP; [8]): > 10 µM

O=C(c1ccc(OC(F)(F)F)cc1)c1csc(-c2ccccc2)n1 [compound 13]
IC50 (LNCaP; [8]): > 10 µM

O=C(c1ccc(F)cc1)c1csc(-c2ccc(F)cc2)n1 [compound 14]
IC50 (LNCaP; [8]): > 10 µM

O=C(c1csc(-c2cc(F)c(F)c(F)c2)n1)c1c(F)c(F)c(F)c(F)c1F [compound 16]
IC50 (LNCaP; [8]): > 10 µM

COc1cc(C(=O)c2csc(-c3ccccc3)n2)cc(OC)c1OC(=O)CCl [compound 18]
IC50 (LNCaP; [8]): ~10 µM

O=C(c1ccc2c(c1)OCO2)N1CCC(c2ccccc2)CC1 [compound 19]
IC50 (LNCaP; [8]): > 20 µM

O=C(c1ccc(F)cc1)N1CCC(c2ccccc2)CC1 [compound 22]
IC50 (LNCaP; [8]): > 20 µM

COc1cc(C(=O)c2csc(-c3ccccc3)n2)cc(OC)c1OC(=O)C(F)(F)F [compound 23]
IC50 (LNCaP; [8]): ~10 µM

COc1cc(-c2nc(C(=O)c3ccc(F)cc3)cn2C(=O)c2ccc(F)cc2)cc(OC)c1OC [compound 30]
IC50 (LNCaP; [8]): > 10 µM

O=C(c1cc(O)c(O)c(O)c1)c1csc(-c2ccccc2)n1 [compound 33]
IC50 (LNCaP; [8]): > 2 µM
